In patent US10993983B2, “Cyclic peptide epitopes and small-molecule mimics for inducing autophagy” (TRUSTEES OF TUFTS COLLEGE, priority 2016, dated 2021):

Tests used:
[1] = system: p62; test: p62 degradation assay (p62/actin immunoblot); type: cell-based; set-up: key: −: activity not reported; 0: decreased vs. WT; +: similar to WT; ++: modest increase vs. WT; +++: significant increase vs. WT; conditions: Table 6, control DMSO, first symbol; for Activity (μM) 10, p62/actin assay activity: 10 μM; for Activity (μM) 30, p62/actin assay activity: 30 μM; for Activity (μM) 50, p62/actin assay activity: 50 μM; for Activity (μM) 100, p62/actin assay activity: 100 μM
Experimental: (§1) Cells were treated with peptide in OPTI-MEM (Thermo Scientific) acidified with 0.15% (v/v) 6N HCl for 3 hour. Cells were rinsed with Dulbecco's phosphate buffered saline (PBS) and lysed in lysis buffer (20 mM HEPES, 150 mM NaCl, 1 mM EDTA, 1% Triton X-100, protease inhibitor cocktail (Roche) on ice for 1 hour. Cell lysates were centrifuged at 16,000 g for 10 min at 4° C. and analyzed by SDS-PAGE and transferred to PVDF membranes. The membranes were blocked 5% non-fat dry milk (NFDM) in PBST (PBS+0.05% Tween-20) for 1 hour, then incubated overnight at 4° C. with primary antibody in 5% NFDM in PBST. The blots were washed with PBST and incubated with HRP-conjugated secondary antibodies diluted in 5% NFDM in PBST for 1 hour at room temperature. Membranes were washed with PBST and visualized with SuperSignal West Pico Chemiluminescent Substrate (Thermo Scientific). Semi-quantitative results were obtained by noting the lowest concentration at which both p62 degradation and LC3-I to LC3-II conversion were observed.
(§2) Compounds 1-10 were evaluated using the assays described in Examples 4 and 5. Activity for each compound was measured in the p62 degradation assay and the LC3 marker assay as described herein. The activity at each concentration of peptide is given as, for example, (0/+) where 0 would be the p62/actin assay activity and + would be the LC3 assay activity.

[2] = system: LC3; test: LC3 marker assay (LC3-I to LC3-II conversion immunoblot); type: cell-based; set-up: key: −: activity not reported; 0: decreased vs. WT; +: similar to WT; ++: modest increase vs. WT; +++: significant increase vs. WT; conditions: Table 6, control DMSO, second symbol; for Activity (μM) 10, LC3 assay activity: 10 μM; for Activity (μM) 30, LC3 assay activity: 30 μM; for Activity (μM) 50, LC3 assay activity: 50 μM; for Activity (μM) 100, LC3 assay activity: 100 μM
Experimental: as §1, §2
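Note: HeLa cells.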

Sequence | Activity (μM) 10, p62/actin assay activity [1] | Activity (μM) 30, p62/actin assay activity [1] | Activity (μM) 50, p62/actin assay activity [1] | Activity (μM) 100, p62/actin assay activity [1] | Activity (μM) 10, LC3 assay activity [2] | Activity (μM) 30, LC3 assay activity [2] | Activity (μM) 50, LC3 assay activity [2] | Activity (μM) 100, LC3 assay activity [2]
VCNATCHIWH [Compound 18] | 0/0 | 0/0 | 0/0 | 0/0 | 0/0 | 0/0 | 0/0 | 0/0
VCNATCHIWH [Compound 19] | + | ++ | ++ | +++ | 0 | 0 | + | +
VCNATCHIWH [Compound 20] | ++/++ | +++ | +++ | +++ | ++/++ | ++ | ++ | ++
VCNATCHIWH [Compound 21] | ++ | +++ | +++ | +++ | 0 | 0 | 0 | 0
VCNATCHIWH [Compound 22] | +++ | +++ | +++ | +++ | + | + | ++ | +
VCNATCHIWH [Compound 23] | + | ++/++ | +++ | +++ | 0 | ++/++ | ++ | ++
VCNATCHIWH [Compound 24] | ++/++ | +++ | +++ | +++ | ++/++ | ++ | ++ | ++
VCNATCHIWH [Compound 25] | ++/++ | ++/++ | +++/+++ | +++/+++ | ++/++ | ++/++ | +++/+++ | +++/+++
